Where a name gives a salt, the structure may show the parent alone.
Tested on: skin homogenate of guinea pig
Test: Activity for inhibiting the formation of lipid peroxides (ultraviolet-B irradiated skin homogenate, TBA method)
Format: biochemical, albino guinea pig (Hartley strain, female)
Details: test compound 10^-4 M; UV 9.5 mW/cm^2, 60 minutes
Method: The activity for inhibiting the formation of lipid peroxides which are increasingly formed by exposed to the ultraviolet-B radiation to the skin homogenate of guinea pig was determined by a procedure of thiobarbituric acid method (TBA method).
The activity for inhibiting the formation of lipid peroxides can be evaluated by degree of decreasing the optical absorbance of the condensate of thus formed malondialdehyde with thiobarbituric acid, by adding a test sample of the cyclic amide derivative of the present invention to the homogenate.
That is, the hairs covering in the back of an albino guinea pig (Hartley strain, female) were clipped by using an electric hair clippers under anesthesia. After the enucleation of the hair clipped portion of the skin, the subcutaneous tissue of this skin was removed in cold physiological saline. Distilled water in an amount of 9 times by weight of the skin tissue was added to this skin subcutaneous tissue, then was subjected to homogenation and centrifugation (600 g, for 5 minutes) to obtain the supernatant liquid. 5 Microliters each of test sample solutions of various concentrations was added to 0.5 ml each of the supernatant liquid, then the ultraviolet ray in the intensity of 9.5 mW/cm^2 was irradiated for 60 minutes by using fluorescent lamps (TOSHIBA FL-20SE, manufactured by Toshiba Corporation) as a light source. As to the reference sample solution, the solvent for dissolution of the test compound was used in place of the test sample solution. After ultraviolet radiation, the amount of lipid peroxide being formed in the sample solution (TBA value) was measured by TBA method (cf. Analytical Biochemistry, 1979, Vol. 95, pp. 351-358), and the inhibition rate of lipid peroxide formation shown by the test sample was calculated by the following formula: [formula]

First: C=CCc1ccc2c(c1O)N(CCCCCCCCCCO)C(=O)CC2 [Example 65]
Second: C=CCc1cc2c(cc1O)CCC(=O)N2CCCCCCCCCCO [Example 62]
The “Inhibition rate of lipid peroxide formation” value (“Inhibition rate” below) of the first is lower: 79% for the first, 81% for the second.

First: C=CCOc1cc2c(cc1C=CC)N(CC=C(C)C)C(=O)CC2 [Example 80, 6-allyloxy-3,4-dihydro-1-prenyl-7-(1-propenyl)-2(1H)-quinolinone]
Second: C=CCOc1cc2c(cc1CC=C)N(CC=C(C)C)C(=O)CC2 [Example 17, 7-allyl-6-allyloxy-3,4-dihydro-1-prenyl-2(1H)-quinolinone]
The “Inhibition rate” value of the first is higher: 95% for the first, 85% for the second.

Compared with `C=CCOc1ccc(CN2C(=O)CCc3c2cc(CC=C)c(O)c3CC=C)cc1` [Example 51], `C=CCc1cc2c(c(CC=C)c1O)CCC(=O)N2Cc1ccc(OC)cc1` [Example 52] is higher in “Inhibition rate” value: 95% for the first, 100% for the second.

Going from `C=CCc1cc2c(c(CC=C)c1O)CCC(=O)N2Cc1ccc(C)c(C)c1` [Example 54] to `C=CCc1cc(CN2C(=O)CCc3c2cc(CC=C)c(O)c3CC=C)ccc1O` [Example 53], the “Inhibition rate” value falls from 96% to 95%.

Compared with `C=CCc1cc2c(c(CC=C)c1O)NC(=O)CC2` [Example 25, 6,8-diallyl-3,4-dihydro-7-hydroxy-2(1H)-quinolinone], `C=CCc1cc2c(c(CC=C)c1O)CCC(=O)N2CC=C` [Example 46] is higher in “Inhibition rate” value: 78% for the first, 95% for the second.

First: C=CCc1cc2c(c(CC=C)c1O)CCC(=O)N2CCCNCCOC [Example 74]
Second: C=CCc1cc2c(c(CC=C)c1O)CCC(=O)N2CCCNC(=O)CCl [Example 69, 1-(3-chloroacetylaminopropyl)-5,7-diallyl-3,4-dihydro-6-hydroxy-2(1H)-quinolinone]
The “Inhibition rate” value of the first is lower: 68% for the first, 78% for the second.

First: C=CCc1cc2c(cc1O)N(CC=C(C)C)C(=O)CC2 [Example 11, 6-Allyl-3,4-dihydro-7-hydroxy-1-prenyl-2(1H)-quinolinone]
Second: C=CCc1cc2c(c(CC=C)c1O)CCC(=O)N2CC(=O)OCC [Example 57, 5,7-diallyl-1-(ethoxy-carbonylmethyl)-3,4-dihydro-6-hydroxy-2(1H)-quinolinone]
The “Inhibition rate” value of the first is lower: 70% for the first, 78% for the second.

First: C=CCc1cc(CN2C(=O)CCc3c2ccc(O)c3CC=C)cc(OC)c1O [Example 78, 5-allyl-6-hydroxy-1-(3-allyl-4-hydroxy-5-methoxybenzyl)-3,4-dihydro-2(1H)-quinolinone]
Second: C=CCc1cc2c(c(CC=C)c1O)CCC(=O)N2c1ccc(OC)cc1 [Example 32, 5,7-diallyl-3,4-dihydro-6-hydroxy-1-(4-methoxyphenyl)-2(1H)-quinolinone]
The “Inhibition rate” value of the first is higher: 95% for the first, 87% for the second.

Going from `C=CCc1cc2c(c(CC=C)c1O)CCC(=O)N2CCCCN(CC)CC` [Example 86, 5,7-Diallyl-1-(4-diethylaminobutyl)-3,4-dihydro-6-hydroxy-2(1H)-quinolinone.oxalate] to `C=CCc1cc2c(c(CC=C)c1O)CCC(=O)N2CCCCP(=O)(OCC)OCC` [Example 93, 5,7-diallyl-1-(4-diethoxy-phosphorylbutyl)-3,4-dihydro-6-hydroxy-2(1H)-quinolinone], the “Inhibition rate” value rises from 71% to 73%.

With `C=CCc1cc2c(c(CC=C)c1O)CCC(=O)N2C1C=CCCC1` (stereo not shown) [Example 45] the “Inhibition rate” value was 95%.

In the case of `Cc1c(C)c2c(c(C)c1O)CCC(C)(CCCC(C)CCCC(C)CCCC(C)C)O2` (stereo not drawn) [Vitamin E, α-tocopherol, reference compound], the “Inhibition rate” value is reported as 77-79%.

Tested on: skin erythema
Test: Activity for inhibiting skin erythema caused by ultraviolet radiation
Format: in vivo, albino guinea pig (Hartley strain, female, 7-8 week age)
Details: 3% concentration of test compound, 10 μl topical; UV 1.3-1.5 mW/cm^2 for 30 minutes; measured 24 hours later
Method: The hairs covering in the back of albino guinea pig (Hartley strain, female, 7-8 week age) were shaved by using an electric hair clippers and a shaver. In the next day, the guinea pig was fixed in Bowlman's cage, then a light shield tape (adhesive plaster for patch test), having 4 round holes of 1.5 cm in diameter was adhered on the hair clipped portion so as to provide 4 sites (round holes) to be exposed to the ultraviolet rays. […] Each one of the test sample solutions was prepared by dissolving each test compounds in three kinds of concentrations within 0.1 to 10%, and applied.

For “5,7-diallyl-3,4-dihydro-6-hydroxy-1-(2-hydroxybutyl)-2(1H)-quinolinone [Example 110]”, the “Rate of activity for inhibiting the skin erythema” value was 44%.

Same assay, conditions: Cavia porcellus, topical, 24 h, read-out: Rate of activity for inhibiting the skin erythema, 3% concentration of test compound, 10 μl topical; UV 1.3-1.5 mW/cm^2 for 30 minutes; measured 24 hours later

In the case of `C=CCc1cc2c(c(CC=C)c1O)CCC(=O)N2CC(=O)[O-].[Na+]` [Example 113, sodium (5,7-diallyl-6-hydroxy-1,2,3,4-tetrahydro-2-oxoquinolin-1-yl)acetate], the inhibition in vivo at 3 % is reported as 52%.

Same assay, conditions: Cavia porcellus; 3% concentration of test compound, 10 μl topical; UV 1.3-1.5 mW/cm^2 for 30 minutes; measured 24 hours later; read-out: Rate of activity for inhibiting the skin erythema

Compared with `C=CCc1cc2c(c(CC=C)c1O)CCC(=O)N2CCCCNCCCC` [Example 84, 1-(4-n-butylaminobutyl)-5,7-diallyl-3,4-dihydro-6-hydroxy-2(1H)-quinolinone.oxalate], `C=CCc1cc2c(c(CC=C)c1O)CCC(=O)N2CCCCNC(C)(C)CO` [Example 85, 5,7-Diallyl-3,4-dihydro-6-hydroxy-1-[4-(2-hydroxy-1,1-dimethyl)ethylamino]butyl-2-(1H)-quinolinone. oxalate] is higher in inhibition in vivo at 3 %: 31% for the first, 39% for the second.

Going from `C=CCc1cc2c(c(CC=C)c1O)CCC(=O)N2Cc1ccc(C(=O)OC)cc1` [Example 107, 5,7-Diallyl-3,4-dihydro-6-hydroxy-1-(4-methoxycarbonylbenzyl)-2(1H)-quinolinone] to `C=CCc1cc2c(c(CC=C)c1O)CCC(=O)N2CC(N)=O` [Example 77, 1-(carbamoylmethyl)-5,7-diallyl-3,4-dihydro-6-hydroxy-2(1H)-quinolinone], the inhibition in vivo at 3 % rises from 44% to 50%.

First: C=CCc1cc2c(c(CC=C)c1O)CCC(=O)N2CCCN1CCOCC1 [Example 72]
Second: C=CCc1cc2c(c(CC=C)c1O)CCC(=O)N2CCCN1CCCCC1 [Example 71, 5,7-diallyl-3,4-dihydro-6-hydroxy-1-[3-(piperidinopropyl)]-2(1H)-quinolinone]
The inhibition in vivo at 3 % of the first is lower: 33% for the first, 45% for the second.

Going from `C=CCc1cc2c(c(CC=C)c1O)NC(=O)CO2` [Example 35, 5,7-diallyl-6-hydroxy-3-(2H)-1,4-benzoxazinone] to `C=CCc1cc2c(c(CC=C)c1O)N(CC=C)C(=O)CO2` [Example 37, 6-hydroxy-4,5,7-triallyl-3(2H)-1,4-benzoxazinone], the inhibition in vivo at 3 % falls from 41% to 39%.

First: C=CCc1cc2c(c(CC=C)c1O)OCC(=O)N2CC=C [Example 36, 7-hydroxy-4,6,8-triallyl-3(2H)-1,4-benzoxazinone]
Second: C=CCc1cc2c(c(CC=C)c1O)CCC(=O)N2CCCCl [Example 42, 1-(3-chloropropyl)-5,7-diallyl-3,4-dihydro-6-hydroxy-2(1H)-quinolinone]
The inhibition in vivo at 3 % of the first is lower: 26% for the first, 45% for the second.

Going from `C=CCc1cc2c(c(CC=C)c1O)CCC(=O)N2CCCCCCCCCCCC` [Example 102] to `C=CCc1cc2c(c(CC=C)c1O)CCC(=O)N2CCCCOC(C)=O` [Example 104], the inhibition in vivo at 3 % falls from 57% to 31%.

Going from `C=CCc1cc2c(c(CC=C)c1O)CCC(=O)N2CCCCC(=O)OC` [Example 105] to `C=CCc1cc2c(c(CC=C)c1O)CCC(=O)N2CCCCn1ccnc1` [Example 87, 5,7-Diallyl-3,4-dihydro-6-hydroxy-1-[4-(imidazol-1-yl)butyl]-2-(1N)-quinolinone.oxalate], the inhibition in vivo at 3 % falls from 44% to 28%.

In the case of `C=CCc1cc2c(c(CC=C)c1O)CCC(=O)N2CCCn1cnnc1` [Example 88, 5,7-diallyl-3,4-dihydro-6-hydroxy-1-[3-(1,2,4-triazol-4-yl)propyl]-2(1H)-quinolinone], the inhibition in vivo at 3 % is reported as 37%.

Same assay, conditions: topical; three concentrations within 0.1 to 10%

Going from `C=CCc1cc2c(c(CC=C)c1O)NC(=O)CO2` [Example 35, 5,7-diallyl-6-hydroxy-3-(2H)-1,4-benzoxazinone] to `C=CCc1cc2c(c(CC=C)c1O)N(CC=C)C(=O)CO2` [Example 37, 6-hydroxy-4,5,7-triallyl-3(2H)-1,4-benzoxazinone], the “50% inhibitory concentration (IC50) for inhibiting the skin erythema” value (shortened to “50% inhibitory concentration (IC50)”) rises from 5.9 concentration in % to 7.7 concentration in %.

First: C=CCc1cc2c(c(CC=C)c1O)OCC(=O)N2CC=C [Example 36, 7-hydroxy-4,6,8-triallyl-3(2H)-1,4-benzoxazinone]
Second: C=CCc1cc2c(c(CC=C)c1O)CCC(=O)N2CC(N)=O [Example 77, 1-(carbamoylmethyl)-5,7-diallyl-3,4-dihydro-6-hydroxy-2(1H)-quinolinone]
The “50% inhibitory concentration (IC50)” value of the first is higher: 9.8 concentration in % for the first, 2.7 concentration in % for the second.

Going from `C=CCc1cc2c(c(CC=C)c1O)CCC(=O)N2CCCCCCCCCCCC` [Example 102] to `C=CCc1cc2c(c(CC=C)c1O)CCC(=O)N2CC(=O)[O-].[Na+]` [Example 113, sodium (5,7-diallyl-6-hydroxy-1,2,3,4-tetrahydro-2-oxoquinolin-1-yl)acetate], the “50% inhibitory concentration (IC50)” value falls from 3.7 concentration in % to 2.5 concentration in %.

Reference: patent publication US5786367A, “Cyclic amide derivatives” (Otsuka Pharmaceutical Co., Ltd., priority 1994, dated 1998)
